# Values quoted from earlier work in PubChem BioAssay AID1259409 (Chemical Carcinogenesis Research Information System (CCRIS), 2018).
# Tested on: rodent chemically induced tumor inhibition, incidence and multiplicity
# Test: CCRIS tumor inhibitor studies
compound,measurement,setting,value
O=c1oc2c(O)c(O)cc3c(=O)oc4c(O)c(O)cc1c4c23,"tumour outcome (control, treated, inhibition, significance)","Carcinogen: BENZO[A]PYRENE, 50-32-8, Dose [Inhibitor]: 0, 2500 NMOL IN 200 µL ACETONE:METHANOL (45:55) ONCE APPLIED 5 MIN PRIOR TO CARCINOGEN DOSE (STUDY DURATION: 21 WK), Route [Inhibitor]: DERMAL, Species: MOUSE, Strain/Sex: CD-1/FEMALE, Target Tissue: Type of Lesion: SKIN: TUMOR, Dose [Carcinogen]: 50 NMOL IN ACETONE:DMSO (90:10) ONCE, Promoter: 12-O-TETRADECANOYLPHORBOL-13-ACETATE, 16561-29-8","55%, 33%, 40%, not significant"
same,"tumour outcome (control, treated, inhibition, significance)","Carcinogen: BENZO[A]PYRENE, 50-32-8, Dose [Inhibitor]: 100 MG/KG ADMINISTERED 1 HR BEFORE AND 6, 24, AND 48 HR AFTER BENZO[A]PYRENE TREATMENT (STUDY DURATION: 6 MO), Route [Inhibitor]: INTRAPERITONEAL, Species: MOUSE, Strain/Sex: STRAIN-A/MALE, Target Tissue: Type of Lesion: LUNG: ADENOMA, Dose [Carcinogen]: 100 MG/KG ONCE, Promoter: NONE USED","18/18 (100%), 4/6 (67%), 33%, not significant"
same,"tumour outcome (control, treated, inhibition, significance)","Carcinogen: BENZO[A]PYRENE, 50-32-8, Dose [Inhibitor]: 100 MG/KG ADMINISTERED 1 HR BEFORE AND 6, 24, AND 48 HR AFTER CARCINOGEN TREATMENT FOLLOWED BY 6 MO OBSERVATION PERIOD (, Route [Inhibitor]: INTRAPERITONEAL, Species: MOUSE, Strain/Sex: STRAIN-A/MALE, Target Tissue: Type of Lesion: LUNG: ADENOMA, Dose [Carcinogen]: 100 MG/KG ONCE, Promoter: NONE USED","18/18 (100%), 4/6 (67%), 33%, not significant"
same,"tumour outcome (control, treated, inhibition, significance)","Carcinogen: BENZO[A]PYRENE, 50-32-8, Dose [Inhibitor]: 100 MG/KG STARTING 5 D BEFORE AND CONTINUING THROUGH 10 D AFTER CARCINOGEN TREATMENT (STUDY DURATION: 6 MO), Route [Inhibitor]: ORAL, Species: MOUSE, Strain/Sex: STRAIN-A/MALE, Target Tissue: Type of Lesion: LUNG: ADENOMA, Dose [Carcinogen]: 100 MG/KG ONCE, Promoter: NONE USED","18/18 (100%), 19/19 (100%), 0%, not significant"
same,"tumour outcome (control, treated, inhibition, significance)","Carcinogen: BENZO[A]PYRENE, 50-32-8, Dose [Inhibitor]: 100 MG/KG/D IN DIET STARTING 5 D BEFORE AND CONTINUING TO 10 D AFTER CARCINOGEN TREATMENT FOLLOWED BY 6 MO OBSERVATION P, Route [Inhibitor]: ORAL, Species: MOUSE, Strain/Sex: STRAIN-A/MALE, Target Tissue: Type of Lesion: LUNG: ADENOMA, Dose [Carcinogen]: 100 MG/KG ONCE, Promoter: NONE USED","18/18 (100%), 19/19 (100%), 0%, not significant"
same,"tumour outcome (control, treated, inhibition, significance)","Carcinogen: DIBENZO[A,H]PYRENE, 189-64-0, Dose [Inhibitor]: 0, 300 NMOL (TOTAL DOSE) APPLIED 10 MIN PRIOR TO CARCINOGEN DOSE INJECTED AS 1/7, 2/7, AND 4/7 OF THE TOTAL ON DAYS 1, 8, Route [Inhibitor]: INTRAPERITONEAL, Species: MOUSE, Strain/Sex: ICR/MALE,FEMALE, Target Tissue: Type of Lesion: LUNG: TUMOR, Dose [Carcinogen]: 50 NMOL (TOTAL DOSE) INJECTED IN DOSES OF 1/7, 2/7, AND 4/7 ON DAYS 1, 8, AND 15 OF LIFE, RESPECTIVELY, Promoter: NONE USED","95%, 100%, -5%, not significant"
same,"tumour outcome (control, treated, inhibition, significance)","Carcinogen: DIETHYLNITROSAMINE, 55-18-5, Dose [Inhibitor]: 0, 900 MG/KG BW BY INTRAPERITONEAL INJECTION ON DAYS 13, 14 AND 15 OF AGE THEN 6 G/KG DIET FROM 21 TO 161 DAYS OF AGE (S, Route [Inhibitor]: INTRAPERITONEAL, ORAL, Species: MOUSE, Strain/Sex: C3H/MALE, Target Tissue: Type of Lesion: LIVER: ADENOMA, Dose [Carcinogen]: 4 MG/KG IN TRICAPRYLIN ONCE ON DAY 15 OF AGE, Promoter: NONE USED","100%, 100%, 0%, not significant"
same,"tumour outcome (control, treated, inhibition, significance)","Carcinogen: DIETHYLNITROSAMINE, 55-18-5, N-METHYLNITROSOUREA, 684-93-5, 1,2-DIMETHYLHYDRAZINE, 540-73-8, N-BUTYL-N-(4-HYDROXYB, Carcinogen: DIETHYLNITROSAMINE, 55-18-5, N-METHYLNITROSOUREA, 684-93-5, 1,2-DIMETHYLHYDRAZINE, 540-73-8, N-BUTYL-N-(4-HYDROXYB, Dose [Inhibitor]: 0, 1% IN DIET FOR 4 WK BEGINNING 1 DAY PRIOR TO CARCINOGEN TREATMENT (STUDY DURATION: 36 WK), Route [Inhibitor]: ORAL, Species: RAT, Strain/Sex: F344/MALE, Target Tissue: Type of Lesion: KIDNEY: ADENOMA, Dose [Carcinogen]: 100 MG/KG DEN ONCE, 20 MG/KG MNU 4 TIMES, 40 MG/KG DMH 4 TIMES, 0.05% BBN IN DRINKING WATER FOR 2 WK, 0.1% DHPN IN D, Dose [Carcinogen]: 100 MG/KG DEN ONCE, 20 MG/KG MNU 4 TIMES, 40 MG/KG DMH 4 TIMES, 0.05% BBN IN DRINKING WATER FOR 2 WK, 0.1% DHPN IN D, Promoter: NONE USED","4/14 (29%), 1/12 (8%), 72%, not significant"
same,"tumour outcome (control, treated, inhibition, significance)","Carcinogen: DIETHYLNITROSAMINE, 55-18-5, N-METHYLNITROSOUREA, 684-93-5, 1,2-DIMETHYLHYDRAZINE, 540-73-8, N-BUTYL-N-(4-HYDROXYB, Carcinogen: DIETHYLNITROSAMINE, 55-18-5, N-METHYLNITROSOUREA, 684-93-5, 1,2-DIMETHYLHYDRAZINE, 540-73-8, N-BUTYL-N-(4-HYDROXYB, Dose [Inhibitor]: 0, 1% IN DIET FOR 4 WK BEGINNING 1 DAY PRIOR TO CARCINOGEN TREATMENT (STUDY DURATION: 36 WK), Route [Inhibitor]: ORAL, Species: RAT, Strain/Sex: F344/MALE, Target Tissue: Type of Lesion: KIDNEY: NEPHROBLASTOMA, Dose [Carcinogen]: 100 MG/KG DEN ONCE, 20 MG/KG MNU 4 TIMES, 40 MG/KG DMH 4 TIMES, 0.05% BBN IN DRINKING WATER FOR 2 WK, 0.1% DHPN IN D, Dose [Carcinogen]: 100 MG/KG DEN ONCE, 20 MG/KG MNU 4 TIMES, 40 MG/KG DMH 4 TIMES, 0.05% BBN IN DRINKING WATER FOR 2 WK, 0.1% DHPN IN D, Promoter: NONE USED","7/14 (50%), 5/12 (42%), 16%, not significant"
same,"tumour outcome (control, treated, inhibition, significance)","Carcinogen: DIETHYLNITROSAMINE, 55-18-5, N-METHYLNITROSOUREA, 684-93-5, 1,2-DIMETHYLHYDRAZINE, 540-73-8, N-BUTYL-N-(4-HYDROXYB, Carcinogen: DIETHYLNITROSAMINE, 55-18-5, N-METHYLNITROSOUREA, 684-93-5, 1,2-DIMETHYLHYDRAZINE, 540-73-8, N-BUTYL-N-(4-HYDROXYB, Dose [Inhibitor]: 0, 1% IN DIET FOR 4 WK BEGINNING 1 DAY PRIOR TO CARCINOGEN TREATMENT (STUDY DURATION: 36 WK), Route [Inhibitor]: ORAL, Species: RAT, Strain/Sex: F344/MALE, Target Tissue: Type of Lesion: LARGE INTESTINE: ADENOMA, Dose [Carcinogen]: 100 MG/KG DEN ONCE, 20 MG/KG MNU 4 TIMES, 40 MG/KG DMH 4 TIMES, 0.05% BBN IN DRINKING WATER FOR 2 WK, 0.1% DHPN IN D, Dose [Carcinogen]: 100 MG/KG DEN ONCE, 20 MG/KG MNU 4 TIMES, 40 MG/KG DMH 4 TIMES, 0.05% BBN IN DRINKING WATER FOR 2 WK, 0.1% DHPN IN D, Promoter: NONE USED","7/14 (50%), 5/12 (42%), 16%, not significant"
same,"tumour outcome (control, treated, inhibition, significance)","Carcinogen: DIETHYLNITROSAMINE, 55-18-5, N-METHYLNITROSOUREA, 684-93-5, 1,2-DIMETHYLHYDRAZINE, 540-73-8, N-BUTYL-N-(4-HYDROXYB, Carcinogen: DIETHYLNITROSAMINE, 55-18-5, N-METHYLNITROSOUREA, 684-93-5, 1,2-DIMETHYLHYDRAZINE, 540-73-8, N-BUTYL-N-(4-HYDROXYB, Dose [Inhibitor]: 0, 1% IN DIET FOR 4 WK BEGINNING 1 DAY PRIOR TO CARCINOGEN TREATMENT (STUDY DURATION: 36 WK), Route [Inhibitor]: ORAL, Species: RAT, Strain/Sex: F344/MALE, Target Tissue: Type of Lesion: LARGE INTESTINE: CARCINOMA, Dose [Carcinogen]: 100 MG/KG DEN ONCE, 20 MG/KG MNU 4 TIMES, 40 MG/KG DMH 4 TIMES, 0.05% BBN IN DRINKING WATER FOR 2 WK, 0.1% DHPN IN D, Dose [Carcinogen]: 100 MG/KG DEN ONCE, 20 MG/KG MNU 4 TIMES, 40 MG/KG DMH 4 TIMES, 0.05% BBN IN DRINKING WATER FOR 2 WK, 0.1% DHPN IN D, Promoter: NONE USED","3/14 (21%), 4/12 (33%), -57%, not significant"
same,"tumour outcome (control, treated, inhibition, significance)","Carcinogen: DIETHYLNITROSAMINE, 55-18-5, N-METHYLNITROSOUREA, 684-93-5, 1,2-DIMETHYLHYDRAZINE, 540-73-8, N-BUTYL-N-(4-HYDROXYB, Carcinogen: DIETHYLNITROSAMINE, 55-18-5, N-METHYLNITROSOUREA, 684-93-5, 1,2-DIMETHYLHYDRAZINE, 540-73-8, N-BUTYL-N-(4-HYDROXYB, Dose [Inhibitor]: 0, 1% IN DIET FOR 4 WK BEGINNING 1 DAY PRIOR TO CARCINOGEN TREATMENT (STUDY DURATION: 36 WK), Route [Inhibitor]: ORAL, Species: RAT, Strain/Sex: F344/MALE, Target Tissue: Type of Lesion: SMALL INTESTINE: ADENOMA, Dose [Carcinogen]: 100 MG/KG DEN ONCE, 20 MG/KG MNU 4 TIMES, 40 MG/KG DMH 4 TIMES, 0.05% BBN IN DRINKING WATER FOR 2 WK, 0.1% DHPN IN D, Dose [Carcinogen]: 100 MG/KG DEN ONCE, 20 MG/KG MNU 4 TIMES, 40 MG/KG DMH 4 TIMES, 0.05% BBN IN DRINKING WATER FOR 2 WK, 0.1% DHPN IN D, Promoter: NONE USED","6/14 (43%), 1/12 (8%), 81%, not calculated"
